Assays:
[1] = target: T1, hAR (Homo sapiens, UniProt P10275); experiment: APRn selectivity: transactivation in HEK293T cells transiently expressing hAR; format: cell-based; settings: for agonist efficacy towards hAR (in words): HEK293T, FIG. 11
T1 construct: expressed in transfected cells; host or cells: HEK 293T
T1 sequence (P10275 1-920): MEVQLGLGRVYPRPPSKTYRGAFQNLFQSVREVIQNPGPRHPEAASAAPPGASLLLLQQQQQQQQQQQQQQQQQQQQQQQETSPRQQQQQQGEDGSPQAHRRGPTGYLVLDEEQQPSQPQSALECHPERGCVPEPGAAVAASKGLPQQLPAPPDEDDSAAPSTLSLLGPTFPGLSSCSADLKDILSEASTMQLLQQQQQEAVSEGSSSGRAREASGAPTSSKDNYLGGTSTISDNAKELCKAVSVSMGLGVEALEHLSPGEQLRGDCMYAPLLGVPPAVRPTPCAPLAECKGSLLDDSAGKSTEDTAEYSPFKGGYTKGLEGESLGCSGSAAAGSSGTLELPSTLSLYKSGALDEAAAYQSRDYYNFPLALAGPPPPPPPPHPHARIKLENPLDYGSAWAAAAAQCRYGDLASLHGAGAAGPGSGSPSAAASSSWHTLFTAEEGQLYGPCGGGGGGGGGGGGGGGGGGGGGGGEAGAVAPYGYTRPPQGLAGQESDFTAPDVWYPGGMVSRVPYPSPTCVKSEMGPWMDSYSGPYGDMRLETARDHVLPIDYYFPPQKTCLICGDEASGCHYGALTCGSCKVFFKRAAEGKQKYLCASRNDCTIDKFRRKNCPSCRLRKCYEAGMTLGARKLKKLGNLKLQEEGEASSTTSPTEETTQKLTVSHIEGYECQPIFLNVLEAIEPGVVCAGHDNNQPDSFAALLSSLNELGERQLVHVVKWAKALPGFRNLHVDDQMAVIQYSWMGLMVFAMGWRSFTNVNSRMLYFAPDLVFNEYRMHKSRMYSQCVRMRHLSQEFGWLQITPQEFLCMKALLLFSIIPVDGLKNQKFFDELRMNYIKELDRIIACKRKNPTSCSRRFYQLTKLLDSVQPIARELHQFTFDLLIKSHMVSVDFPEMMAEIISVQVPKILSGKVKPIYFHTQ
Description: (§1) Measurement of the APRn Selectivity in HEK 293T.
(§2) The HEK-293T cells were cultured and transfected according to the method described above for the PR transactivation assays. The expression vectors pcDNA-hAR, kindly provided by G. A. Coetzee, pchGR (Hellal-Levy, C et al. FEBS Lett 1999, 464, 9), and pchMR (Fagart, J. et al. EMBO J. 1998, 17, 3317) were used for studying the ability of APRn to activate or inactivate the AR, GR and MR, respectively. For each transfection assays, 2 μg of the expression vector was used together with 7 μg of the GRE2-Luc reporter vector. Dihydrotestosterone (DHT), dexamethasone (Dex) and Aldosterone (Aldo) were selected as AR, GR and MR ligands, respectively. They were used at the concentration of 10^−9 M. The APRn agonist and antagonist efficacy for AR, GR and MR were measured as described above for PR. The results are the mean±SEM of three independent experiments.
(§3) Transfection assays were performed in HEK 293T cells by using expression vectors for the hAR, hGR and hMR and the GRE2-Luc reporter used for the PR transactivation assays.

[2] = target: T2, hPRB (Homo sapiens, UniProt P06401); experiment: PR transactivation assay (GRE2-Luc) in HEK293T cells transiently expressing hPRB; format: cell-based; parameters: expressed in transfected cells; host or cells: HEK 293T; settings: series 1 (no C3 substituent), HEK293T, APRn 1 μM, FIG. 1
T2 sequence (P06401 1-933): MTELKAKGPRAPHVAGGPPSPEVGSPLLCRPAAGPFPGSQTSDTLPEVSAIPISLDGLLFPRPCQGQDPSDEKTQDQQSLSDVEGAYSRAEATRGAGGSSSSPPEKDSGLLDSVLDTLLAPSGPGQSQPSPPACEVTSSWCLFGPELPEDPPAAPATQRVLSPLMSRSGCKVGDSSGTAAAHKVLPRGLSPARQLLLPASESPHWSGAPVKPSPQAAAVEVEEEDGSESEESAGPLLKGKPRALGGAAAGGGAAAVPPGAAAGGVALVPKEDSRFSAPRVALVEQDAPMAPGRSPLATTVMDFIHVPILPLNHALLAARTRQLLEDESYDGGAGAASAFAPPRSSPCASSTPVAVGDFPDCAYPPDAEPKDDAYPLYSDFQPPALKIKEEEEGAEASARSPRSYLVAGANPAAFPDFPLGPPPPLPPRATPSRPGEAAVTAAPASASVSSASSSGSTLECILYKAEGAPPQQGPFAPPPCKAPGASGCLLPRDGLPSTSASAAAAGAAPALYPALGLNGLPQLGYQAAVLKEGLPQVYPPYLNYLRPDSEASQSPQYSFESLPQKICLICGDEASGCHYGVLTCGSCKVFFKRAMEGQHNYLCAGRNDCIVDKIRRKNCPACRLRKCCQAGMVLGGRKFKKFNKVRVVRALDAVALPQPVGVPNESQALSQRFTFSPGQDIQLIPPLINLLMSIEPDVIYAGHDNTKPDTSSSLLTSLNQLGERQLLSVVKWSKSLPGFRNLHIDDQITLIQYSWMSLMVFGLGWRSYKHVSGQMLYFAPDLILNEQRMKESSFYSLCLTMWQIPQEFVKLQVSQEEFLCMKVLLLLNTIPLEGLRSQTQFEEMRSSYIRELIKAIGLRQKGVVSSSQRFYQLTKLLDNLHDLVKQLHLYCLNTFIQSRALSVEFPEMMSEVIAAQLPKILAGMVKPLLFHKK
Description: PR Transactivation Assays in HEK 293T.
HEK 293T cells were routinely cultured in a high-glucose DMEM medium (Invitrogene, Cergy Pontoise, France), 20 mM HEPES, 2 mM glutamine, 1× non essential amino acids, 100 U/mL penicillin and 100 μg/mL streptomycin supplemented with 10% foetal calf serum (FCS) in a humidified atmosphere at 37° C. and with 5% CO2. One day before transfection, the cells were seeded at 3×10^6 cells/[…] diameter culture Petri dish and cultured overnight in the same medium. Six hours before transfection, the FCS supplemented medium was replaced by the same medium supplemented with 10% dextran-charcoal treated FCS. Transfections were carried out using the calcium phosphate precipitation method. The calcium phosphate precipitate was prepared with 0.5 μg pchPRB (Petit-Topin, et al Mol Pharmacol, 2009, 75, 1317), 7 μg reporter vector (GRE2-Luc from A. Biola-Vidamment and M. Pallardy) and 1 μg of pcβgal for an internal transfection control, in 1 mL 140 mM NaCl, 0.75 mM Na2HPO4, 25 mM HEPES, 125 mM CaCl2 pH 7.05 and added to the cells 30 minutes later. After 16 h incubation, the transfected cells were washed with PBS containing 2.5 mM EDTA, trypsinized and pooled. The transfected cells were replated in 24-well plates (100.000 transfected cells/well). […] Cells were lysed in 300 μl PBS 1×, 25 mM glycylglycine, 4 mM EDTA, 15% glycerol, 1% triton X-100, 15 mM MgSO4, pH 7.8 supplemented with 2 mM β-mercaptoethanol. The luciferase activities were quantified by using a Mithras LB940 reader microplates (Berthold).
The APRn “agonist efficacy” was determined from the following formula:
Agonist efficacy=[luciferase activity]1/[luciferase activity]2×100
The APRn “antagonist efficacy” was calculated from the following formula:
Antagonist efficacy=100−[luciferase activity]1/[luciferase activity]2×100
The results are the mean±SEM of three to five independent experiments.
All the synthesized APRn were classified in 4 series depending on the nature of their C3 substituent (R1/R′1 groups). The first one (series 1) includes APRn with no C3 substituent (R1═R′1═H) whereas series 2, 3 and 4 are related to APRn bearing a methoxyl (R1═OMe), a hydroxyl (R1═OH) and a fluorine atom (R1═F), respectively. The agonist/antagonist activities of APRn were determined either in human HEK293T cells transiently expressing hPRB or in human MDA-MB-231 iPRAB cells conditionally expressing hPRB, by using a luciferase reporter gene placed under the control of a glucocorticoid response element (GRE2-Luc). The APRn “agonist efficacy” was determined from the luciferase activity measured in the presence of APRn (1 μM). […] The “agonist efficacy” and “antagonist efficacy” are expressed as defined in the biological protocols section.

[3] = target: T3, hMR (Homo sapiens, UniProt P08235); experiment: APRn selectivity: transactivation in HEK293T cells transiently expressing hMR; format: cell-based; settings: mean±SEM
T3 construct: expressed in transfected cells; host or cells: HEK 293T
T3 sequence (P08235 1-984): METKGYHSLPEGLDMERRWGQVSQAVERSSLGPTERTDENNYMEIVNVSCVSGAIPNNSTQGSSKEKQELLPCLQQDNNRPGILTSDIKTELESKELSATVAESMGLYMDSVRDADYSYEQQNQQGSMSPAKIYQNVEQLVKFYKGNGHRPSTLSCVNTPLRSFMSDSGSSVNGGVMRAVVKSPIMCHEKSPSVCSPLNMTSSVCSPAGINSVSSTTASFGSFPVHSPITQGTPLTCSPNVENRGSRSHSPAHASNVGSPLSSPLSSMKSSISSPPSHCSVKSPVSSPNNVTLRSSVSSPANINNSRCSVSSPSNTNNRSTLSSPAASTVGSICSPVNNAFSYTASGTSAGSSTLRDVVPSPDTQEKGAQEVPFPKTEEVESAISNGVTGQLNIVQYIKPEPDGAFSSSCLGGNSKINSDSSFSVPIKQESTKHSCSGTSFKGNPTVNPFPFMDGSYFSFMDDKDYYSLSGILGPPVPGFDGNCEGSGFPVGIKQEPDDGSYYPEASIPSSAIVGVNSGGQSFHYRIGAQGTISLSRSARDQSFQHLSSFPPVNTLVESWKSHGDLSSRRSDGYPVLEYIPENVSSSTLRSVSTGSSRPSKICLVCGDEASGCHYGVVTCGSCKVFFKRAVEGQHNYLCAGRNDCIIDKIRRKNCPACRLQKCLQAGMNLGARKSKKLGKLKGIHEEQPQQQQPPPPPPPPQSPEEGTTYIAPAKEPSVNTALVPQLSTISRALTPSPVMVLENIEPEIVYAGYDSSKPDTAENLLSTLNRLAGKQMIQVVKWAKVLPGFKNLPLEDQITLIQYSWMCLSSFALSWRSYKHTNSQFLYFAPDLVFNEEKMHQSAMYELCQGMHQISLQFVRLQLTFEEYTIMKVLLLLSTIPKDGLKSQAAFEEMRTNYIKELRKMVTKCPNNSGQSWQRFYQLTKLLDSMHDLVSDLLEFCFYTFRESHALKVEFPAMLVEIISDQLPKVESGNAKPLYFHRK
Description: as §1, §2, §3

[4] = target: T4, hGR (Homo sapiens, UniProt P04150); experiment: APRn selectivity: transactivation in HEK293T cells transiently expressing hGR; format: cell-based; settings: HEK293T transiently expressing hGR, mean±SEM
T4 construct: expressed in transfected cells; host or cells: HEK 293T
T4 sequence (P04150 1-777): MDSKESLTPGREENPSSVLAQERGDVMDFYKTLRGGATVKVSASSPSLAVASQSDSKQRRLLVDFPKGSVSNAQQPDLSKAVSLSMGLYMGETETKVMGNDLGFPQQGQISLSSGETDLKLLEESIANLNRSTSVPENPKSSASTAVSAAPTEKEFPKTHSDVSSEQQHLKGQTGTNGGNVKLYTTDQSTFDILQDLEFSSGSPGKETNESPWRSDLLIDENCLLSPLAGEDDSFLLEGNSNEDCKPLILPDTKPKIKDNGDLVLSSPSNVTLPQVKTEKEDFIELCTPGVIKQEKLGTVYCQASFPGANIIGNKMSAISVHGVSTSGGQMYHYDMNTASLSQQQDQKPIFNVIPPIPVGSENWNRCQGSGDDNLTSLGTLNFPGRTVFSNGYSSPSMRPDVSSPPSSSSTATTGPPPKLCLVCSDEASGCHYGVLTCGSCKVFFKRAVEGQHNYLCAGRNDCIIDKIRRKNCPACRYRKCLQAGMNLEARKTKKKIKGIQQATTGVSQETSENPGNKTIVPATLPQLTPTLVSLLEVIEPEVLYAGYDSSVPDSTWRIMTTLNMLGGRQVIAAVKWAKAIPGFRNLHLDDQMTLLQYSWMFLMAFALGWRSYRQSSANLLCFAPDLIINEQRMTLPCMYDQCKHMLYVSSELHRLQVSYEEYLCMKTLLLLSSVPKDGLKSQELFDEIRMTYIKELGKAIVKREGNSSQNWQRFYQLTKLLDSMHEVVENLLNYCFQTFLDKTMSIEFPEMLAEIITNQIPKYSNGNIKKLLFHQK
Description: as §1, §2, §3

Row | Compound | agonist efficacy towards hAR (in words) [1] | melting point [°C] | hPRB agonist/antagonist character (in words) [2] | MR Antagonist efficacy (%) ([3]; aldosterone 10^−9 M) | MR Agonist efficacy (%) [3] [%] | GR Antagonist efficacy (%) ([4]; dexamethasone 10^−9 M) | Emax ([4]; HEK-293T, read-out: GR Agonist efficacy (%)) [%] | selectivity for hPR vs hAR, hGR and hMR (in words) ([1]; conclusion from hAR, hGR and hMR transactivation assays)
1 | CC(=O)O[C@H]1CCC2C3CC=C4C=CCC[C@@H]4C3CC[C@@]21C (stereo partly drawn) [APR-49, 17β-Acetoxy-19-nor-androst-3,5-diene] | high potent hAR agonists | 94 to 95 | full antagonists |  |  |  |  | 
2 | CC#C[C@]1(O)CCC2C3CC=C4C[C@@H](F)CC[C@]4(C)C3CC[C@@]21C (stereo partly drawn) [APR-44, 31-Fluoro-17α-(1-propynyl)androst-5-en-17β-ol] |  | 136 to 137 |  | 1.6 ± 5.5 | 0.47 ± 0.10 | 2.0 ± 2.8 | 0.2 ± 0.1 | 
3 | CC(=O)[C@H]1CC[C@H]2[C@@H]3CC[C@H]4C[C@@H](F)CC[C@]4(C)[C@H]3CC[C@]12C [APR-17, 3β-Fluoro-5α-pregnan-20-one] | low agonist efficacy | 154 to 155 |  |  |  |  |  | selective hPR antagonists

Source: patent publication US20130203718A1 (priority 2010, published 2013)
